Target: T1, GlyT1 (Homo sapiens, UniProt P48067)
T1 construct: expressed in transfected cells
T1 sequence (P48067 1-706): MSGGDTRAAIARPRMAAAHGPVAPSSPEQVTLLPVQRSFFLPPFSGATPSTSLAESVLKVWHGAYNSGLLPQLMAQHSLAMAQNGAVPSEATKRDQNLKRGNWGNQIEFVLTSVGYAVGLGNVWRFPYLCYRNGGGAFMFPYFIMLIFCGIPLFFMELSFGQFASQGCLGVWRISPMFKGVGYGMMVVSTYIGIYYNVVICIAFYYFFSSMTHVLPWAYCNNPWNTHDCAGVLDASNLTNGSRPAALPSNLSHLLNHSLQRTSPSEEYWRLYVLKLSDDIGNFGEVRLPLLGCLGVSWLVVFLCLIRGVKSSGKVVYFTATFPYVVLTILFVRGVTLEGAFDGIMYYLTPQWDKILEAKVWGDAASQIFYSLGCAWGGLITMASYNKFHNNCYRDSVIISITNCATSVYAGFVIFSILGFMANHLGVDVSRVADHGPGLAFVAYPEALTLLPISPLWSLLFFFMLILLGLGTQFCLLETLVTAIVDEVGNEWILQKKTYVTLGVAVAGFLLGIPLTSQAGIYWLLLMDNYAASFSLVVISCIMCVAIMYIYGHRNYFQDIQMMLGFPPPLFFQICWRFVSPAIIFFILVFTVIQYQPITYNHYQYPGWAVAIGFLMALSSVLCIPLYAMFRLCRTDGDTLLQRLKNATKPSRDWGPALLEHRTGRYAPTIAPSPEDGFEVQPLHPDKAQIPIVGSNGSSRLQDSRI
Test: Glycine Transporter 1 (GlyT1) uptake assay, scintillation proximity assay of [14C]-glycine uptake
Assay type: cell-based
Conditions: SPA, four parameter logistic fit, read-out: GlyT1 (pIC50) (converted)
Procedure: Glycine Transporter 1 (GlyT1) Uptake Assay
Plates were then read on a MicroBeta plate counter (Perkin Elmer). Dose-response data for tested compounds were analyzed and curves were fit using a four parameter logistic fit to determine IC50 values. […]

SMILES: C[C@H](Oc1ccc(S(C)(=O)=O)cc1C(=O)N1Cc2cn(-c3ccc(F)cc3F)nc2C1)C(F)(F)F [Example 38, 2-(2 4-Difluorophenyl)-5-(5-methanesulfonyl-2-{[(2S)-1 1 1-trifluoropropan-2-yl]oxy}benzoyl)-2H 4H 5H 6H-pyrrolo[3,4-e]pyrazole]
- IC50: < 0.1 µM

SMILES: Cc1cccc(-n2cc3c(n2)CN(C(=O)c2cc(S(C)(=O)=O)ccc2OCC(C)C)C3)c1 [Example 39, 5-[5-Methanesulfonyl-2-(2-methylpropoxy)benzoyl]-2-(3-methylphenyl)-2H 4H 5H 6H-pyrrolo[3,4-e]pyrazole]
- IC50: < 0.1 µM

SMILES: CCS(=O)(=O)c1ccc(O[C@@H](C)C(F)(F)F)c(C(=O)N2Cc3cn(-c4ccccc4)nc3C2)c1 [Example 40, 5-[5-(Ethanesulfonyl)-2-{[(2S)-1 1 1-trifluoropropan-2-yl]oxy}benzoyl]-2-phenyl-2H 4H 5H 6H-pyrrolo[3,4-e]pyrazole]
- IC50: < 0.1 µM

SMILES: CCS(=O)(=O)c1ccc(O[C@@H](C)C(F)(F)F)c(C(=O)N2Cc3cn(-c4ccc(F)cc4)nc3C2)c1 [Example 41, 5-[5-(Ethanesulfonyl)-2-{[(2S)-1 1 1-trifluoropropan-2-yl]oxy}benzoyl]-2-(4-fluorophenyl)-2H 4H 5H 6H-pyrrolo[3,4-c]pyrazole]
- IC50: < 0.1 µM

SMILES: Cc1cccc(-n2cc3c(n2)CN(C(=O)c2cc(S(C)(=O)=O)ccc2O[C@@H](C)C(F)(F)F)C3)c1F [Example 42, 2-(2-Fluoro-3-methylphenyl)-5-(5-methanesulfonyl-2-{[(2S)-1 1 1-trifluoropropan-2-yl]oxy}benzoyl)-2H 4H 5H 6H-pyrrolo[3,4-e]pyrazole]
- IC50: < 0.1 µM

SMILES: C[C@H](Oc1ccc(S(C)(=O)=O)cc1C(=O)N1Cc2cn(-c3cccc(C(F)(F)F)c3F)nc2C1)C(F)(F)F [Example 43, 2-[2-Fluoro-3-(trifluoromethyl)phenyl]-5-(5-methanesulfonyl-2-{[(2S)-1 1 1-trifluoropropan-2-yl]oxy}benzoyl)-2H 4H 5H 6H-pyrrolo[3,4-e]pyrazole]
- IC50: < 0.1 µM

SMILES: C[C@H](Oc1ccc(S(C)(=O)=O)cc1C(=O)N1Cc2cn(-c3cccc(C(F)(F)F)c3)nc2C1)C(F)(F)F [Example 44, 5-(5-Methanesulfonyl-2-{[(2S)-1 1 1-trifluoropropan-2-yl]oxy}benzoyl)-2-[3-(trifluoromethyl)phenyl]-2H 4H 5H 6H-pyrrolo[3,4-c]pyrazole]
- IC50: < 0.1 µM

SMILES: CC(C)Oc1ccc(S(C)(=O)=O)cc1C(=O)N1Cc2cn(-c3ccccc3)nc2C1 [Example 45, 5-[5-Methanesulfonyl-2-(propan-2-yloxy)benzoyl]-2-phenyl-2H 4H 5H 6H-pyrrolo[3,4-c]pyrazole]
- IC50: < 0.1 µM

SMILES: CC(C)Oc1ccc(S(C)(=O)=O)cc1C(=O)N1Cc2cn(-c3cccc(C(F)(F)F)c3F)nc2C1 [Example 46, 2-[2-Fluoro-3-(trifluoromethyl)phenyl]-5-[5-methanesulfonyl-2-(propan-2-yloxy)benzoyl]-2H 4H 5H 6H-pyrrolo[3,4-c]pyrazole]
- IC50: < 0.1 µM

SMILES: CC(C)Oc1ccc(S(C)(=O)=O)cc1C(=O)N1Cc2cn(-c3cccc(C(F)(F)F)c3)nc2C1 [Example 47, 5-[5-Methanesulfonyl-2-(propan-2-yloxy)benzoyl]-2-[3-(trifluoromethyl)phenyl]-2H 4H 5H 6H-pyrrolo[3,4-c]pyrazole]
- IC50: < 0.1 µM

SMILES: CC(C)(C)COc1ccc(S(C)(=O)=O)cc1C(=O)N1Cc2cn(-c3ccccc3)nc2C1 [Example 48, 5-[2-(2 2-Dimethylpropoxy)-5-methanesulfonylbenzoyl]-2-phenyl-2H 4H 5H 6H-pyrrolo[3,4-e]pyrazole]
- IC50: < 0.1 µM

SMILES: CC(C)(C)COc1ccc(S(C)(=O)=O)cc1C(=O)N1Cc2cn(-c3cccc(C(F)(F)F)c3F)nc2C1 [Example 49, 5-[2-(2 2-Dimethylpropoxy)-5-methanesulfonylbenzoyl]-2-[2-fluoro-3-(trifluoromethyl)phenyl]-2H 4H 5H 6H-pyrrolo[3,4-c]pyrazole]
- IC50: < 0.1 µM

SMILES: CC(C)(C)COc1ccc(S(C)(=O)=O)cc1C(=O)N1Cc2cn(-c3cccc(C(F)(F)F)c3)nc2C1 [Example 50, 5-[2-(2 2-Dimethylpropoxy)-5-methanesulfonylbenzoyl]-2-[3-(trifluoromethyl)phenyl]-2H 4H 5H 6H-pyrrolo[3,4-c]pyrazole]
- IC50: < 0.1 µM

SMILES: CC(C)COc1ccc(S(C)(=O)=O)cc1C(=O)N1Cc2cn(-c3ccccc3)nc2C1 [Example 51, 5-[5-Methanesulfonyl-2-(2-methylpropoxy)benzoyl]-2-phenyl-2H 4H 5H 6H-pyrrolo[3,4-c]pyrazole]
- IC50: < 0.1 µM

SMILES: CC(C)COc1ccc(S(C)(=O)=O)cc1C(=O)N1Cc2cn(-c3cccc(C(F)(F)F)c3F)nc2C1 [Example 52, 2-[2-Fluoro-3-(trifluoromethyl)phenyl]-5-[5-methanesulfonyl-2-(2-methylpropoxy)benzoyl]-2H 4H 5H 6H-pyrrolo[3,4-c]pyrazole]
- IC50: < 0.1 µM

SMILES: CC(C)COc1ccc(S(C)(=O)=O)cc1C(=O)N1Cc2cn(-c3cccc(C(F)(F)F)c3)nc2C1 [Example 53, 5-[5-Methanesulfonyl-2-(2-methylpropoxy)benzoyl]-2-[3-(trifluoromethyl)phenyl]-2H 4H 5H 6H-pyrrolo[3,4-c]pyrazole]
- IC50: < 0.1 µM

SMILES: CS(=O)(=O)c1ccc(N2CCC(F)(F)CC2)c(C(=O)N2Cc3cn(-c4ccccc4)nc3C2)c1 [Example 54, 4 4-Difluoro-1-(4-methanesulfonyl-2-{2-phenyl-2H 4H 5H 6H-pyrrolo[3,4-c]pyrazole-5-carbonyl}phenyl)piperidine]
- IC50: < 0.1 µM

SMILES: CS(=O)(=O)c1ccc(N2CCC(F)(F)CC2)c(C(=O)N2Cc3cn(-c4cccc(C(F)(F)F)c4)nc3C2)c1 [Example 55, 4 4-Difluoro-1-(4-methanesulfonyl-2-{2-[3-(trifluoromethyl)phenyl]-2H 4H 5H 6H-pyrrolo[3,4-e]pyrazole-5-carbonyl}phenyl)piperidine]
- IC50: < 0.1 µM

SMILES: CS(=O)(=O)c1ccc(N2CCC(F)(F)CC2)c(C(=O)N2Cc3cn(-c4ccc(F)cc4)nc3C2)c1 [Example 56, 4 4-Difluoro-1-{2-[2-(4-fluorophenyl)-2H 4H 5H 6H-pyrrolo[3,4-c]pyrazole-5-carbonyl]-4-methanesulfonylphenyl}piperidine]
- IC50: < 0.1 µM

SMILES: Cc1c(F)ccc(-n2cc3c(n2)CN(C(=O)c2cc(S(C)(=O)=O)ccc2O[C@@H](C)C(F)(F)F)C3)c1F [Example 58, 2-(2 4-Difluoro-3-methylphenyl)-5-(5-methanesulfonyl-2-{[(2S)-1 1 1-trifluoropropan-2-yl]oxy}benzoyl)-2H 4H 5H 6H-pyrrolo[3,4-c]pyrazole]
- IC50: < 0.1 µM

SMILES: C[C@H](Oc1ccc(S(C)(=O)=O)cc1C(=O)N1Cc2cn(-c3cc(Cl)ccc3F)nc2C1)C(F)(F)F [Example 59, 2-(5-Chloro-2-fluorophenyl)-5-(5-methanesulfonyl-2-{[(2S)-1 1 1-trifluoropropan-2-yl]oxy}benzoyl)-2H 4H 5H 6H-pyrrolo[3,4-c]pyrazole]
- IC50: < 0.1 µM

SMILES: CC(C)Oc1ccc(S(C)(=O)=O)cc1C(=O)N1Cc2cn(-c3ccccc3F)nc2C1 [Example 60, 2-(2-Fluorophenyl)-5-[5-methanesulfonyl-2-(propan-2-yloxy)benzoyl]-2H 4H 5H 6H-pyrrolo[3,4-c]pyrazole]
- IC50: < 0.1 µM

SMILES: Cc1c(F)ccc(-n2cc3c(n2)CN(C(=O)c2cc(S(C)(=O)=O)ccc2OC(C)C)C3)c1F [Example 61, 2-(2 4-Difluoro-3-methylphenyl)-5-[5-methanesulfonyl-2-(propan-2-yloxy)benzoyl]-2H 4H 5H 6H-pyrrolo[3,4-c]pyrazole]
- IC50: < 0.1 µM

SMILES: CC(C)Oc1ccc(S(C)(=O)=O)cc1C(=O)N1Cc2cn(-c3cc(Cl)ccc3F)nc2C1 [Example 62, 2-(5-Chloro-2-fluorophenyl)-5-[5-methanesulfonyl-2-(propan-2-yloxy)benzoyl]-2H 4H 5H 6H-pyrrolo[3,4-c]pyrazole]
- IC50: < 0.1 µM

SMILES: CC(C)(C)COc1ccc(S(C)(=O)=O)cc1C(=O)N1Cc2cn(-c3ccccc3F)nc2C1 [Example 63, 5-[2-(2 2-Dimethylpropoxy)-5-methanesulfonylbenzoyl]-2-(2-fluorophenyl)-2H 4H 5H 6H-pyrrolo[3,4-c]pyrazole]
- IC50: < 0.1 µM

SMILES: Cc1c(F)ccc(-n2cc3c(n2)CN(C(=O)c2cc(S(C)(=O)=O)ccc2OCC(C)(C)C)C3)c1F [Example 64, 2-(2 4-Difluoro-3-methylphenyl)-5-[2-(2 2-dimethylpropoxy)-5-methanesulfonylbenzoyl]-2H 4H 5H 6H-pyrrolo[3,4-c]pyrazole]
- IC50: < 0.1 µM

SMILES: CC(C)(C)COc1ccc(S(C)(=O)=O)cc1C(=O)N1Cc2cn(-c3cc(Cl)ccc3F)nc2C1 [Example 65, 2-(5-Chloro-2-fluorophenyl)-5-[2-(2 2-dimethylpropoxy)-5-methanesulfonylbenzoyl]-2H 4H 5H 6H-pyrrolo[3,4-c]pyrazole]
- IC50: < 0.1 µM

SMILES: CC(C)COc1ccc(S(C)(=O)=O)cc1C(=O)N1Cc2cn(-c3ccccc3F)nc2C1 [Example 66, 2-(2-Fluorophenyl)-5-[5-methanesulfonyl-2-(2-methylpropoxy)benzoyl]-2H 4H 5H 6H-pyrrolo[3,4-c]pyrazole]
- IC50: < 0.1 µM

— patent US9708334B2, “Substituted 2,4,5,6-tetrahydropyrrolo[3,4-c]pyrazole and 4,5,6,7-tetrahydro-2H-pyrazolo[4,3-c]pyridine compounds as GlyT1 inhibitors” (DART NEUROSCIENCE (CAYMAN) LTD., priority 2014, dated 2017)
